Structures can show the parent of a compound that is named as a salt.
biological target: T1, Acetylcholinesterase (Mus musculus, UniProt P21836); experiment: Enzyme Inhibition Assay
T1 sequence (P21836 whole entry): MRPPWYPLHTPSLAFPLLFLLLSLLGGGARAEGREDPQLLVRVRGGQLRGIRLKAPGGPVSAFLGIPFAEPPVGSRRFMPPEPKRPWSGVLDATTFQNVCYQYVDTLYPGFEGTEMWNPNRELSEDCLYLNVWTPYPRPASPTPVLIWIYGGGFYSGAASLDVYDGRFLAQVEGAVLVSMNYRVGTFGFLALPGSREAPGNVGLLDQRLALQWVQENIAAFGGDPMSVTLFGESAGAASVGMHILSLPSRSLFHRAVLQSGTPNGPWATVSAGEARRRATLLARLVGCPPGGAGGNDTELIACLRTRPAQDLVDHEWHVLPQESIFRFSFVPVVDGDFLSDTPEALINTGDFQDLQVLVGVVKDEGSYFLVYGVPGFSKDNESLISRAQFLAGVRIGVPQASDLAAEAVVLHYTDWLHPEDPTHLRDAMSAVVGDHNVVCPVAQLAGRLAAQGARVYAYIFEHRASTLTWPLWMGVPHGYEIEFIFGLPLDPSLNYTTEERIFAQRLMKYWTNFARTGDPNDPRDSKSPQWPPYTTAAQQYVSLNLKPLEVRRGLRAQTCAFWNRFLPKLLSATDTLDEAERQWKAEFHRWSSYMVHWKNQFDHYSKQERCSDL

Cc1cccc(CN2CCC(CCN(C)C(=O)c3ccccc3)CC2)c1 was tested. Which IC50 did it give?
Its IC50 is 0.145 µM.

With CN(CCC1CCNCC1)C(=O)c1ccccc1 [(2E)-but-2-enedioic acid; N-methyl-N-[2-(piperidin-4-yl)ethyl]benzamide] as the compound, how does the IC50 read?
The IC50 was 26 µM.

Which IC50 does the source give for CN(CCC1CCN(C(=O)c2ccccc2)CC1)C(=O)c1ccccc1 [N-[2-(1-benzoylpiperidin-4-yl)ethyl]-N-methylbenzamide] here?
Its IC50 is 52 µM.

Which IC50 does the source give for Cc1ccccc1CN1CCC(CCN(C)C(=O)c2ccccc2)CC1 [N-methyl-N-(2-{1-[(2-methylphenyl)methyl]piperidin-4-yl}ethyl)benzamide hydrochloride] here?
The IC50 was 0.77 µM.

For CN(CCC1CCN(Cc2cccc([N+](=O)[O-])c2)CC1)C(=O)c1ccccc1 [N-methyl-N-(2-{1-[(3-nitrophenyl)methyl]piperidin-4-yl}ethyl)benzamide hydrochloride], which IC50 is on record?
The IC50 was 0.37 µM.

Which IC50 does the source give for CN(CCC1CCN(Cc2ccc([N+](=O)[O-])cc2)CC1)C(=O)c1ccccc1 [N-methyl-N-(2-{1-[(4-nitrophenyl)methyl]piperidin-4-yl}ethyl)benzamide hydrochloride] here?
Its IC50 is 3.3 µM.

How did the IC50 turn out when CN(CCC1CCN(CCc2ccccc2)CC1)C(=O)c1ccccc1 [N-methyl-N-{2-[1-(2-phenylethyl)piperidin-4-yl]ethyl}benzamide hydrochloride] was run?
Its IC50 is 13 µM.
